Measurements from US20260294853A1, “COSMETIC COMPOSITION HAVING ANTI-INFLAMMATORY ACTIVITY” (LG CHEM, LTD., priority 2023, published 2026).

Tested on: Mouse macrophages
Experiment: Evaluation of Reactive Nitrogen Species Inhibiting Ability (nitric oxide production in LPS-treated mouse macrophages, Griess reagent)
Type: cell-based
Conditions: under the treatment concentration of the 3-hydroxypropionic acid; LPS 1 μg/ml
Protocol: Mouse macrophages were divided into 1×10^6 cells in a 6-well plate and cultured for 24 hours, then treated with LPS (Lipopolysaccharide, concentration 1 μg/ml) solution, and treated with the 3-hydroxypropionic acid aqueous solution according to Preparation Example 1 at four concentrations (3HP concentration: 0 wt. %, 0.0125 wt. %, 0.025 wt. %, 0.05 wt. %), and then cultured again for 24 hours. Only the medium was then separated and centrifuged for 10 minutes to collect only the supernatant. The supernatant was mixed with Griess reagent (Sigma-Aldrich) reagent in a 1:1 ratio and reacted at room temperature, and then the absorbance (OD, wavelength 540 nm) was measured using a microplate reader. The measured value was substituted into the regression equation obtained from the standard curve prepared by reacting Griess reagent (Sigma-Aldrich) and NaNO2 in a 1:1 ratio to calculate the amount of nitric oxide (NO) produced. Here, the case in which neither the LPS solution nor the 3HP aqueous solution was treated was performed as a negative control group.

SMILES: O=C(O)CCO [3HP, 3-Hydroxypropionic acid]
- effect of inhibiting the production of reactive nitrogen species: the effect of inhibiting the production of reactive nitrogen species was exhibited
